This passage reports EC50 results from BindingDB's records for doi:10.1021/jm9903242 (Agouron Pharmaceuticals, 2000).

Where only a bound is given, the exact number is not on record here.

For orientation: EC50 means the midpoint of the concentration-response curve.

A short description of the experiment: Antiviral activity using H1HeLa cells (ATCC) infected with HRV-14.
As to `NC(=O)c1ccc2c(c1)C=CC2=O` [1-Oxo-1H-indene-5-carboxylic acid amide], the EC50 was greater than 20 µM.

In turn, `CCOC(=O)/C=C/c1cc(O)cc(C(N)=O)c1` [3-(3-Carbamoyl-5-hydroxy-phenyl)-acrylic acid ethyl ester] gave a concentration giving a half-maximal response (EC50) greater than 100 µM. Consider `CCOC(=O)/C=C/c1cc(CO)cc(C(N)=O)c1` [3-(3-Carbamoyl-5-hydroxymethyl-phenyl)-acrylic acid ethyl ester], for which the EC50 was greater than 100 µM. Compound `CCOC(=O)/C(C#N)=C/c1cccc(C(N)=O)c1` [3-(3-Carbamoyl-phenyl)-2-cyano-acrylic acid ethyl ester] came in with an EC50 greater than 100 µM. In the case of `NC(=O)c1cccc(/C=C/C(=O)OCCO)c1` [3-(3-Carbamoyl-phenyl)-acrylic acid 2-hydroxy-ethyl ester], a half-maximal response (EC50) required 20 µM.

Consider `NC(=O)c1cccc(/C=C/C(=O)OCc2ccccc2)c1` [3-(3-Carbamoyl-phenyl)-acrylic acid benzyl ester], for which the EC50 was found to be 5.6 µM.

`CCOC(=O)/C=C/c1cccc(C(N)=O)c1` [3-(3-Carbamoyl-phenyl)-acrylic acid ethyl ester] gave an EC50 of 15.9 µM.

In turn, `COC(=O)/C=C/c1cccc(C(N)=O)c1` [3-(3-Carbamoyl-phenyl)-acrylic acid methyl ester] registered a half-maximal effective concentration (EC50) of 150 µM. The compound `NC(=O)c1cccc(/C=C/C(=O)OCCc2ccccc2)c1` [3-(3-Carbamoyl-phenyl)-acrylic acid phenethyl ester] yielded an EC50 of 100 µM. Take `NC(=O)c1cccc(/C=C/C(=O)c2ccco2)c1` [3-(3-Furan-2-yl-3-oxo-propenyl)-benzamide]: the EC50 is greater than 71 µM. In turn, `NC(=O)c1cccc(/C=C/C(=O)c2ccccc2)c1` [3-(3-Oxo-3-phenyl-propenyl)-benzamide] registered an EC50 of 28 µM. Turning to `NC(=O)c1cccc(/C=C/C(=O)c2ccccn2)c1` [3-(3-Oxo-3-pyridin-2-yl-propenyl)-benzamide], the EC50 turned out to be 50 µM. The compound `CC(=O)C=Cc1cccc(C(N)=O)c1` [3-(3-Oxo-but-1-enyl)-benzamide] gave a concentration giving a half-maximal response (EC50) of 32 µM. The same measure for `CCOC(=O)/C=C/c1ccc(OCc2ccccc2)c(C(N)=O)c1` [3-(4-Benzyloxy-3-carbamoyl-phenyl)-acrylic acid ethyl ester]: greater than 320 µM. The figure for `CCOC(=O)/C=C/c1cc(C(N)=O)ccc1C` [3-(5-Carbamoyl-2-methyl-phenyl)-acrylic acid ethyl ester] is greater than 100 µM; for `CN(C)c1ccc(C(=O)/C=C/c2cccc(C(N)=O)c2)cc1` [3-[3-(4-Dimethylamino-phenyl)-3-oxo-propenyl]-benzamide] it is greater than 15 µM. The figure for `COc1ccc(C(=O)/C=C/c2cccc(C(N)=O)c2)cc1` [3-[3-(4-Methoxy-phenyl)-3-oxo-propenyl]-benzamide] is greater than 22 µM; for `CCOC(=O)/C=C/c1cc(CN2CCN(c3ccccn3)CC2)cc(C(N)=O)c1` [3-[3-Carbamoyl-5-(4-pyridin-2-yl-piperazin-1-ylmethyl)-phenyl]-acrylic acid ethyl ester] it is 2.5 µM; for `CCOC(=O)/C=C/c1cc(CN2CCN(c3ncccn3)CC2)cc(C(N)=O)c1` [3-[3-Carbamoyl-5-(4-pyrimidin-2-yl-piperazin-1-ylmethyl)-phenyl]-acrylic acid ethyl ester] it is 1 µM. `CCOC(=O)/C=C/c1cc(CSc2nnc(-c3ccccn3)o2)cc(C(N)=O)c1` [3-[3-Carbamoyl-5-(5-pyridin-2-yl-[1,3,4]oxadiazol-2-ylsulfanylmethyl)-phenyl]-acrylic acid ethyl ester] had a half-maximal effective concentration (EC50) of 5.6 µM.

The compound `CCOC(=O)/C=C/c1cc(CN2CCN(c3ccccc3C#N)CC2)cc(C(N)=O)c1` [3-{3-Carbamoyl-5-[4-(2-cyano-phenyl)-piperazin-1-ylmethyl]-phenyl}-acrylic acid ethyl ester] registered an EC50 of 0.6 µM.

With `CCOC(=O)/C=C/c1cc(CN(CC)Cc2ccncc2)cc(C(N)=O)c1` [3-{3-Carbamoyl-5-[(ethyl-pyridin-4-ylmethyl-amino)-methyl]-phenyl}-acrylic acid ethyl ester], the concentration giving a half-maximal response (EC50) worked out at 5.8 µM.

Compound `CCOC(=O)/C=C/c1cc(CN2CCN(C(=O)OCC)CC2)cc(C(N)=O)c1` [4-[3-Carbamoyl-5-(2-ethoxycarbonyl-vinyl)-benzyl]-piperazine-1-carboxylic acid ethyl ester] returned a half-maximal effective concentration (EC50) of 1.8 µM.
